Test results reported in ChEMBL document CHEMBL1142107, “The effect of halide salts on the production of Gymnoascus reessii polyenylpyrroles” (J Nat Prod, 2007).

What was measured:
[1] = Cytotoxicity against NS1 cell line up to 15 uM; format: cell-based; details: mouse
[2] = Cytotoxicity against NS1 cell line; format: cell-based; details: mouse

Row | Structure (SMILES) | Activity [1] | LD99 [2]
1 | COc1cc(/C(C)=C/C=C/C=C/C=C/c2ccc[nH]2)oc(=O)c1C | Not Active | 
2 | COc1cc(/C(C)=C/C=C/C=C/C=C/c2[nH]ccc2Br)oc(=O)c1C |  | 1.9 µM
3 | COc1cc(/C(C)=C/C=C/C=C/C=C/c2[nH]ccc2Cl)oc(=O)c1C |  | 0.034 µM
